Measured values from ChEMBL document CHEMBL1201862, “PubChem BioAssay data set” (2004).
Calls of active or inactive are those of the source.

Legend:
[1] = target: T1, Low molecular weight phosphotyrosine protein phosphatase (Homo sapiens, UniProt P24666); assay type: functional; conditions: read-out: IC50_Mean;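 note: Dose-response confirmation assay measuring inhibition of LMPTP enzyme activity by fluorescence intensity read-out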
T1 sequence (P24666 whole entry): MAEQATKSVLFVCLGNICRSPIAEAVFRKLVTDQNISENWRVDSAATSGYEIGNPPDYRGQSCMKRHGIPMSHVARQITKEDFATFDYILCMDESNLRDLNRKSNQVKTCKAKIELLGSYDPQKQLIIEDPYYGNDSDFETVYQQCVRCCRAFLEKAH

[2] = Artemis endonuclease inhibitor potency, dose response, biochemical, fluorescence intensity (AID 720701); assay type: functional;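 note: Artemis endonuclease enzyme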
[3] = Luminescence-based cell-based high throughput dose response assay to identify activators of the DAF-12 from the parasite S. stercoralis (ssDAF-12).; assay type: functional
[4] = target: T2, Oxysterols receptor LXR-beta (Homo sapiens, UniProt P55055); assay type: functional, cell-based
T2 sequence (P55055 whole entry): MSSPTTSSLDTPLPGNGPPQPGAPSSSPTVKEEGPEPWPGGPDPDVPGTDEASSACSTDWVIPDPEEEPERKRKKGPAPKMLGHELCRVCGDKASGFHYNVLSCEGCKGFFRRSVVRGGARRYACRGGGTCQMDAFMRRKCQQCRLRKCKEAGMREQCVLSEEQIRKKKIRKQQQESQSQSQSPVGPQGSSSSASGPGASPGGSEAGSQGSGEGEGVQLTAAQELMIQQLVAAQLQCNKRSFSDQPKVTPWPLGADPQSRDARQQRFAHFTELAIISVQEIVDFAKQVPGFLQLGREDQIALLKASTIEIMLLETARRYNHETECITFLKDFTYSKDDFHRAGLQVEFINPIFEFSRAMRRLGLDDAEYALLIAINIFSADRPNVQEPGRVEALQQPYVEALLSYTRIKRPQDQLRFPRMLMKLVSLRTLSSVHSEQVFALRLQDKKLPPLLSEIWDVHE

[5] = cells
[6] = target: Galanin receptor type 3 (Homo sapiens, UniProt O60755); test: Fluorescence-based cell-based primary high throughput dose response assay to identify antagonists of the Galanin Receptor 3 (GalR3).; assay type: functional
Chain of Galanin receptor type 3 (O60755 whole entry): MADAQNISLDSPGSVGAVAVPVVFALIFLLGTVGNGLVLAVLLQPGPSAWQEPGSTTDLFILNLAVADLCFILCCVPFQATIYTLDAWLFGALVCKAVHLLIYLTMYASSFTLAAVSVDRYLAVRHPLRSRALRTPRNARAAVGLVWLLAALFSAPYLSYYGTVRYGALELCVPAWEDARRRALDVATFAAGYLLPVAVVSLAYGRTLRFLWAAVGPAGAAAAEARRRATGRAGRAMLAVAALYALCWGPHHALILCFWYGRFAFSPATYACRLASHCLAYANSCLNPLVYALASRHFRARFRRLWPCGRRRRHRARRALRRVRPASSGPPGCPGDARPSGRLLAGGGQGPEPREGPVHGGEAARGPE

[7] = cells; assay type: functional, cell-based; conditions: HEK-CNG
[8] = Counterscreen for […] of the human trace amine associated receptor 1 (TAAR1): Fluorescence-based cell-based high throughput dose response assay to identify nonselective Ga16 agonists.; assay type: functional
[9] = target: T3, Trace amine-associated receptor 1 (Homo sapiens, UniProt Q96RJ0); test: Fluorescence-based cell-based high throughput dose response assay to identify antagonists of the human trace amine associated receptor 1 (TAAR1).; assay type: functional
T3 sequence (Q96RJ0 whole entry): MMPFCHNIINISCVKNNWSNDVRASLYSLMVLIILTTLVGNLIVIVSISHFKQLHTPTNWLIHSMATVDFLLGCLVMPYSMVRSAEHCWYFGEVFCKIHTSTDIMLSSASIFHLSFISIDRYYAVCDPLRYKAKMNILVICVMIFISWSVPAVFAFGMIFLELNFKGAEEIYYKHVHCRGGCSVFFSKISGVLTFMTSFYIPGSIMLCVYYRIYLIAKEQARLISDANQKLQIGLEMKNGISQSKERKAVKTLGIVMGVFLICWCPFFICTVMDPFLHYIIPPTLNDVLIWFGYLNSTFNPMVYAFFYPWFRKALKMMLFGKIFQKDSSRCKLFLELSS

[10] = Counterscreen for antagonists of the human trace amine associated receptor 1 (hTAAR1): Fluorescence-based cell-based high throughput dose response assay to identify nonselective Ga16 antagonists.; assay type: functional
[11] = target: T3, Trace amine-associated receptor 1; test: Counterscreen for antagonists of the human trace amine associated receptor 1 (hTAAR1): Fluorescence-based cell-based high throughput dose response assay to identify TAAR1 Agonists.; assay type: functional
[12] = target: Paired box protein Pax-8 (Homo sapiens, UniProt Q06710); test: inhibitors of PAX8-driven TPO luciferase reporter, dose response, RMG-I cells, cherry-pick (AID 687027); assay type: functional, cell-based;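 note: luciferase reporter driven by Pax8 target thyroperoxidase promoter measured by SteadyGlo luminescence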
Chain of Paired box protein Pax-8 (Q06710 whole entry): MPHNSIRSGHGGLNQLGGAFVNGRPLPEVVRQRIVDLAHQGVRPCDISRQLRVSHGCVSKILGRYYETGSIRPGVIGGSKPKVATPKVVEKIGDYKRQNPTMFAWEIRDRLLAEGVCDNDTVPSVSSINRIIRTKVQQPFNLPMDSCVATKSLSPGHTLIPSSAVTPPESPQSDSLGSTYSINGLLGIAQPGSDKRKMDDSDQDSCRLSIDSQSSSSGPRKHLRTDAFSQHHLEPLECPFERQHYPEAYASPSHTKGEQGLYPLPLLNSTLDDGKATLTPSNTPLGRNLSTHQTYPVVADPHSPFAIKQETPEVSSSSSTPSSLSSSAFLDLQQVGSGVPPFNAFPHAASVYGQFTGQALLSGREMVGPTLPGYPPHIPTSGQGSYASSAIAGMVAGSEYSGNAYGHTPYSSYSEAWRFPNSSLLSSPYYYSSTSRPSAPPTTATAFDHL

[13] = IOSE-T80 ovarian epithelial cell cytotoxicity, dose response, cytotoxicity control for PAX8 inhibitor project, plate reader, dry powder samples (AID 743045); assay type: functional, cell-based
[14] = A2780 ovarian cancer cell cytotoxicity, dose response, cytotoxicity control, plate reader, dry powder samples (AID 743046); assay type: functional, cell-based
[15] = NIH:OVCAR-3 ovarian cancer cell cytotoxicity, dose response, PAX8 inhibitor project, plate reader, dry powder samples (AID 743044); assay type: functional, cell-based
[16] = cytotoxicity in OVCAR8 ovarian cancer cells, dose response, PAX8 project, cell-based, plate reader, dry powder samples (AID 743197); assay type: functional; conditions: OVCAR-8
[17] = target: T2, Oxysterols receptor LXR-beta; assay type: functional, cell-based; remark: listed apart in the source
[18] = target: T4, Matrix metalloproteinase-14 (Homo sapiens, UniProt P50281); test: SAR confirmation of uHTS hits for a small molecule inhibitors of MT1-MMP activation in a fluorescence assay.; assay type: functional
[19] = target: T4, Matrix metalloproteinase-14; test: Dose Response confirmation of uHTS hits for a small molecule inhibitors of MT1-MMP activation in a fluorescence assay set 1.; assay type: functional
[20] = inhibitors of non-replicating M. tuberculosis, dose response, luciferase, dry powder (AID 651619); assay type: functional; conditions: Mycobacterium tuberculosis
[21] = inhibitors of non-replicating M. tuberculosis, dose response, luciferase, dry powder (AID 651620); assay type: functional; conditions: Mycobacterium tuberculosis
[22] = Inhibition of T. cruzi Tulahuen strain amastigotes in L-6 muscle cells Measured in Cell-Based and Microorganism Combination System Using Plate Reader - 2138-03_Inhibitor_Dose_CherryPick_Activity.; assay type: functional; conditions: Rattus norvegicus, L6
[23] = cytotoxicity in L-6 rat myocytes, dose response, cytotoxicity control, cell-based, plate reader, cherry-pick (AID 651896); assay type: functional
[24] = Inhibition of Plasmodium falciparum NF54 Measured in Cell-Based System Using Plate Reader - 2138-11_Inhibitor_Dose_CherryPick_Activity.; assay type: functional
[25] = L. donovani amastigote growth inhibition, dose response, axenic amastigotes, plate reader, cherry pick (AID 651891); assay type: functional, cell-based; conditions: Leishmania donovani
[26] = intracellular Trypanosoma cruzi inhibitors in host cells – cell-based, plate reader, cherry-pick samples, set 3, dose response (AID 651818); assay type: functional;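 note: compounds incubated with infected cells for about four days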
[27] = T. b. rhodesiense proliferation inhibition, dose response, STIB900 strain, plate reader, cherry pick (AID 651893); assay type: functional, cell-based; conditions: Trypanosoma brucei

O=C(Cc1cn2ccsc2n1)Nc1nc2c(s1)CN(Cc1ccccc1)CC2
IC50 [1]: 44.6 µM (inactive)
IC50 [2]: > 20 µM (inactive)

COc1ccc(Nc2nc(-c3ccccc3)cs2)cc1
IC50 [3]: > 67.5 µM (inactive)
EC50 [4]: > 67.5 µM (inactive)
EC50 [5]: > 67.5 µM (inactive)

Cc1nn(C)c(Nc2ccc(Br)cc2)c1Br
IC50 [6]: 0.155 µM (active)
EC50 [7]: > 29.9 µM (inactive)

COc1ccc(-c2cc(C(=O)NCC(C)C)no2)cc1
EC50 [8]: > 29.9 µM (inactive)
IC50 [9]: > 29.9 µM (inactive)
IC50 [10]: > 29.9 µM (inactive)
EC50 [11]: > 29.9 µM (inactive)

C[C@H]1CCCCO[C@H](CN(C)C(=O)Nc2ccc(C(F)(F)F)cc2)[C@@H](C)CN([C@@H](C)CO)C(=O)c2cc(NC(=O)Nc3ccc(F)cc3)ccc2O1
AC50 [12]: 3.62 µM (active)
AC50 [13]: 50.8 µM (active)
AC50 [14]: 52.4 µM (active)
AC50 [15]: 11.2 µM (active)
AC50 [16]: 23.7 µM (active)

CCOC(=O)CSc1nc(-c2ccncc2)ccc1C#N
EC50 [17]: > 67.5 µM (inactive)

COc1ccc(C)cc1Nc1nc(-c2c(C)[nH]c3ccccc23)cs1
IC50 [18]: > 80 µM (inactive)
IC50 [19]: 22.1 µM (inactive)

c1ccc(Cn2cc(CSc3nnc(-c4ccccc4)o3)nn2)cc1
IC90 [20]: 2 µM (active)
IC90 [21]: 2 µM (active)

COc1ccc(CN(C)C[C@H]2Oc3c(NC(=O)c4ccncc4)cccc3C(=O)N([C@H](C)CO)C[C@@H]2C)cc1
IC50 [22]: 7.39 µM (inactive)
IC50 [23]: > 100 µM (inactive)
IC50 [24]: 7.39 µM (inactive)
IC50 [25]: > 100 µM (inactive)
AC50 [26]: 0.206 µM (active)
IC50 [27]: 20.2 µM (inactive)
